This note sets out measurements from US8003660B2, “Modulators of muscarinic receptors” (Vertex Pharmaceuticals Incorporated, priority 2006, dated 2011).

What all share (type): cell-based
Test [1] has as its target T1, M1 muscarinic receptor (Homo sapiens, UniProt P11229).
T1 construct: expressed in transfected cells; host or cells: CHO (M1-CHO)
T1 sequence (P11229 1-460): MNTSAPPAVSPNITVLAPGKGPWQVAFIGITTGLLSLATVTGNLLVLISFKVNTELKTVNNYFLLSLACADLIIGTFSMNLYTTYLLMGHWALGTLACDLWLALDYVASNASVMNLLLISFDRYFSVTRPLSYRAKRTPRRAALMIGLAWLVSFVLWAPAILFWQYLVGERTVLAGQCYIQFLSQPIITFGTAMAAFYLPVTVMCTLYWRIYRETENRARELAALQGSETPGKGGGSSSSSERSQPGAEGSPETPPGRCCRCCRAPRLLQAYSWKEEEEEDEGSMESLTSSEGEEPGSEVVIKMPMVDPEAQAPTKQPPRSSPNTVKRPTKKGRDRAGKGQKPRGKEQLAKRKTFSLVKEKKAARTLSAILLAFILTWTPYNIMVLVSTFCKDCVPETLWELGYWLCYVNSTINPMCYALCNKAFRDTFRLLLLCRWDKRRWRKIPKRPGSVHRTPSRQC
Description: Functional mobilization of intracellular calcium (FLIPR) in CHO cells expressing M1. As to conditions: for M1 Activity: CHO cells expressing M1, FLIPR calcium assay; for Emax: CHO, 100% efficacy = maximum response obtained with the Carbachol control. The procedure, abridged: (§1)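 Calcium flux is read on FLIPR over 60 sec at 488/540 nm in muscarinic-receptor CHO lines. Antagonist mode adds carbachol at EC80 after 15 min compound preincubation or with simultaneous co-application. Agonist mode adds compound alone. Cells carry Fluo-3 or Calcium 3 dye in probenecid-containing pH 7.4 buffer, 0.5% DMSO final.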
On the technique in general: A change in cytosolic calcium serves as a functional read-out for many receptors and channels.

Test [2] addresses T2, M2 muscarinic receptor (Homo sapiens, UniProt P08172).
T2 construct: expressed in transfected cells; host or cells: CHO (M2-CHO)
T2 sequence (P08172 1-466): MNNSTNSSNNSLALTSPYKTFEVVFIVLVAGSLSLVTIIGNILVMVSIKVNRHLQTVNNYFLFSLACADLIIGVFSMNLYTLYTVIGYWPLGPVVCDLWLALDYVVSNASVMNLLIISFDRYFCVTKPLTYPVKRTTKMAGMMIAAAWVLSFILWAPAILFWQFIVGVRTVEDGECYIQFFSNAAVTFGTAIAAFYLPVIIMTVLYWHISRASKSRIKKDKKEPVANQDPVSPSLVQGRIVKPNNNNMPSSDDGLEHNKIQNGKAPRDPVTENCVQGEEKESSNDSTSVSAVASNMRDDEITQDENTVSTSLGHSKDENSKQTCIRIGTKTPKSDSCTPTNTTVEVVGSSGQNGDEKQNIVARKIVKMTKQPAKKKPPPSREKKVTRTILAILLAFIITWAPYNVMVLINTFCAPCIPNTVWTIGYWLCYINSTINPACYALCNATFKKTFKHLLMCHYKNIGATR
The experiment in a line: Functional mobilization of intracellular calcium (FLIPR) in CHO cells expressing M2. As to conditions: for M2 Activity: CHO cells expressing M2, FLIPR calcium assay; for Emax: CHO, 100% efficacy = maximum response obtained with the Carbachol control. In outline: as §1

The target of test [3] is T3, M3 muscarinic receptor (Homo sapiens, UniProt P20309).
T3 construct: expressed in transfected cells; host or cells: CHO (M3-CHO)
T3 sequence (P20309 whole entry): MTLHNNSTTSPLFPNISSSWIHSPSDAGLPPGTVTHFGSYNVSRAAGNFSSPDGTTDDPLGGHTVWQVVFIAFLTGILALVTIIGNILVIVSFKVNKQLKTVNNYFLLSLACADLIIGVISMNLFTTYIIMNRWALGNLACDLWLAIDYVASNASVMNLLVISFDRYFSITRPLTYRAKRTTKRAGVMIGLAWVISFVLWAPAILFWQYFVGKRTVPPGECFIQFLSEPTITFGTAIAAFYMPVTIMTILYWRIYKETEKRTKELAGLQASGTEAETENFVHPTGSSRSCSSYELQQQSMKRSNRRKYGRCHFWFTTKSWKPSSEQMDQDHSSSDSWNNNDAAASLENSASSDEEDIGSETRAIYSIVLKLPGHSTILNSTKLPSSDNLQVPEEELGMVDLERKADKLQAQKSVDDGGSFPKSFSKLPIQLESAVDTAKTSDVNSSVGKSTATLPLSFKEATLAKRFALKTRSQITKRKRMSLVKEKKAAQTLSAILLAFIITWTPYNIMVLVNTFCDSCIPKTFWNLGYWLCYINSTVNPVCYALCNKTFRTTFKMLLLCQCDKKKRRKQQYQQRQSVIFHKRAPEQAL
The experiment in a line: Functional mobilization of intracellular calcium (FLIPR) in CHO cells expressing M3. The conditions noted are these: for M3 Activity: CHO cells expressing M3, FLIPR calcium assay; for Emax: CHO, 100% efficacy = maximum response obtained with the Carbachol control. The procedure, abridged: as §1

The target in test [4] is T4, M4 muscarinic receptor (Homo sapiens, UniProt P08173).
T4 construct: expressed in transfected cells; host or cells: CHO (M4-CHO)
T4 sequence (P08173 1-479): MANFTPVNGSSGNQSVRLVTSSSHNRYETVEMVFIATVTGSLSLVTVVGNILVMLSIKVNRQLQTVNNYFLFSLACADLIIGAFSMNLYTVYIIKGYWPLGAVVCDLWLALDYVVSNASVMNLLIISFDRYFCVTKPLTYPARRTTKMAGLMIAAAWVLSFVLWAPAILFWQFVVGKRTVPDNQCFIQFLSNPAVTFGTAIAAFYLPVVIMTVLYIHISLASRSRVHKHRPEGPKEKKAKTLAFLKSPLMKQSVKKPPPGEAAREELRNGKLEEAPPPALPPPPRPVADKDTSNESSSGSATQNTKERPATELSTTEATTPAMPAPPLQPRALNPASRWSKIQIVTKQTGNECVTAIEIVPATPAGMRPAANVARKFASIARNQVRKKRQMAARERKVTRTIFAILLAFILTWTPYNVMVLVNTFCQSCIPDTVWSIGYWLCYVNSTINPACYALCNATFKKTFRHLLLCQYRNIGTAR
The experiment in a line: Functional mobilization of intracellular calcium (FLIPR) in CHO cells expressing M4. As to conditions: for M4 Activity: CHO cells expressing M4, FLIPR calcium assay; for Emax: CHO, 100% efficacy = maximum response obtained with the Carbachol control. In outline:
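Read-out: FLIPR fluorescence (ex 488, em 540 nm) over 60 s. Recombinant CHO lines are dye-loaded (Fluo-3 AM or Calcium 3) with 1 mM probenecid. For antagonist mode, compound is pre-incubated 15 min, or co-applied, then carbachol is added at 3× EC80 per subtype.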

The term Emax denotes the maximal effect, on the per cent scale that the assay sets.

With `CC(=O)NCC(=O)N[C@@H]1CCC2(CCN(CCC(C)(C)C)CC2)c2cc(F)ccc21` [compound 200], in test [1], the “M1 Activity” value is “+++ (activity was measured to be less than 2.0 μM)” and the Emax fell in the range of 25 to 100%. Besides, in test [2], the “M2 Activity” value is reported as “+++ (activity was measured to be less than 2.0 μM)” and the Emax fell in the range of 25 to 100%. In test [3], the “M3 Activity” value is recorded as “+ (activity was measured to be greater than 5.0 μM)” and the Emax is less than 25%. Moreover, in test [4], the “M4 Activity” value is listed as “+++ (activity was measured to be less than 2.0 μM)” and the Emax lay in the range of 25 to 100%.
Take `CC(C)(C)CCN1CCC2(CC[C@H](NC(=O)C3CCOCC3)c3ccc(F)cc32)CC1` [compound 202]: in test [1], the “M1 Activity” value is recorded as “+++ (activity was measured to be less than 2.0 μM)” and the Emax lay in the range of 25 to 100%. Also, in test [2], the “M2 Activity” value is “+ (activity was measured to be greater than 5.0 μM)” and the Emax was less than 25%. In test [3], the “M3 Activity” value is given as “+ (activity was measured to be greater than 5.0 μM)” and the Emax was less than 25%. Moreover, in test [4], the “M4 Activity” value is recorded as “+++ (activity was measured to be less than 2.0 μM)” and the Emax was 25 to 100%.
As for `CC(C)(C)CCN1CCC2(CC[C@H](NC(=O)[C@H]3CCC(=O)N3)c3ccc(F)cc32)CC1` [compound 203], in test [1], the “M1 Activity” value is “+++ (activity was measured to be less than 2.0 μM)” and the Emax was in the range of 25 to 100%. In addition, in test [2], the “M2 Activity” value was “+++ (activity was measured to be less than 2.0 μM)” and the Emax was 25 to 100%. For the same molecule, in test [3], the “M3 Activity” value is given as “+ (activity was measured to be greater than 5.0 μM)” and the Emax was less than 25%. Besides, in test [4], the “M4 Activity” value was “+++ (activity was measured to be less than 2.0 μM)” and the Emax was 25 to 100%.
Regarding `CC(=O)N[C@H]1CCC2(CCN(C(C)CC(C)(C)C)CC2)c2ccccc21` (stereo partly drawn) [compound 204], in test [1], the “M1 Activity” value was “+++ (activity was measured to be less than 2.0 μM)” and the Emax is 25 to 100%. For the same molecule, in test [2], the “M2 Activity” value is given as “+ (activity was measured to be greater than 5.0 μM)” and the Emax was less than 25%. Moreover, in test [3], the “M3 Activity” value was “+ (activity was measured to be greater than 5.0 μM)” and the maximum response (Emax) was less than 25%. Besides, in test [4], the “M4 Activity” value is recorded as “+++ (activity was measured to be less than 2.0 μM)” and the Emax fell in the range of 25 to 100%.
`CC(=O)CCC(=O)N[C@@H]1CCC2(CCN(CCC(C)(C)C)CC2)c2ccccc21` [compound 205]: in test [1], the “M1 Activity” value is “+++ (activity was measured to be less than 2.0 μM)” and the Emax was in the range of 25 to 100%. Also, in test [2], the “M2 Activity” value is “+ (activity was measured to be greater than 5.0 μM)” and the Emax is less than 25%. Also, in test [3], the “M3 Activity” value was “+ (activity was measured to be greater than 5.0 μM)” and the Emax is less than 25%. Moreover, in test [4], the “M4 Activity” value is reported as “+++ (activity was measured to be less than 2.0 μM)” and the Emax lay within 25 to 100%.
`CC(C)CCN1CCC2(CC[C@H](N(C)C(=O)N(C)C)c3ccccc32)CC1` [compound 206]: in test [1], the “M1 Activity” value is on record as “+ (activity was measured to be greater than 5.0 μM)” and the Emax is less than 25%. For the same molecule, in test [2], the “M2 Activity” value is “+ (activity was measured to be greater than 5.0 μM)” and the Emax is less than 25%. In addition, in test [3], the “M3 Activity” value is given as “+ (activity was measured to be greater than 5.0 μM)” and the maximal effect (Emax) is less than 25%. In addition, in test [4], the “M4 Activity” value is listed as “+++ (activity was measured to be less than 2.0 μM)” and the Emax is 25 to 100%.
For the molecule `CCn1ccc(C(=O)N[C@H]2CCC3(CCN(CCC(C)(C)C)CC3)c3ccccc32)n1` [compound 207], in test [1], the “M1 Activity” value was “++ (activity was measured to be from 2.0 μM to 5.0 μM)” and the Emax is 25 to 100%. Further, in test [2], the “M2 Activity” value was “+ (activity was measured to be greater than 5.0 μM)” and the Emax is less than 25%. For the same molecule, in test [3], the “M3 Activity” value was “+ (activity was measured to be greater than 5.0 μM)” and the Emax is less than 25%. In addition, in test [4], the “M4 Activity” value is recorded as “+++ (activity was measured to be less than 2.0 μM)” and the Emax lay within 25 to 100%.
Consider `CC(C)COC(=O)N(C)[C@H]1CCC2(CCN(CCC(C)(C)C)CC2)c2ccccc21` [compound 208], for which, in test [1], the “M1 Activity” value was “+++ (activity was measured to be less than 2.0 μM)” and the maximum response (Emax) is 25 to 100%. In addition, in test [2], the “M2 Activity” value was “+++ (activity was measured to be less than 2.0 μM)” and the Emax is less than 25%. In test [3], the “M3 Activity” value is “+ (activity was measured to be greater than 5.0 μM)” and the maximum response (Emax) was less than 25%. Further, in test [4], the “M4 Activity” value is “+++ (activity was measured to be less than 2.0 μM)” and the Emax was in the range of 25 to 100%.
In the case of `CC(C)(C)CCN1CCC2(CC[C@H](NC(=O)C3CCOCC3)c3ccccc32)CC1` [compound 209], in test [1], the “M1 Activity” value is on record as “+++ (activity was measured to be less than 2.0 μM)” and the Emax lay in the range of 25 to 100%. In test [2], the “M2 Activity” value was “+ (activity was measured to be greater than 5.0 μM)” and the Emax is less than 25%. In addition, in test [3], the “M3 Activity” value was “+ (activity was measured to be greater than 5.0 μM)” and the maximum response (Emax) is less than 25%. Further, in test [4], the “M4 Activity” value is reported as “+++ (activity was measured to be less than 2.0 μM)” and the maximum response (Emax) is 25 to 100%.
As to `CCN(C(=O)CCC(C)=O)[C@@H]1CCC2(CCN(CCC(C)(C)C)CC2)c2ccccc21` [compound 210], in test [1], the “M1 Activity” value was “+++ (activity was measured to be less than 2.0 μM)” and the Emax was less than 25%. In test [2], the “M2 Activity” value is given as “+ (activity was measured to be greater than 5.0 μM)” and the Emax was less than 25%. Besides, in test [3], the “M3 Activity” value is given as “+ (activity was measured to be greater than 5.0 μM)” and the Emax was less than 25%. In addition, in test [4], the “M4 Activity” value is “+++ (activity was measured to be less than 2.0 μM)” and the Emax is 25 to 100%.
In the case of `CCN(C(C)=O)[C@H]1CCC2(CCN(CCC(C)(C)C)CC2)c2ccccc21` [compound 211], in test [1], the “M1 Activity” value is “+++ (activity was measured to be less than 2.0 μM)” and the Emax fell in the range of 25 to 100%. For the same molecule, in test [2], the “M2 Activity” value was “+ (activity was measured to be greater than 5.0 μM)” and the Emax is less than 25%. Moreover, in test [3], the “M3 Activity” value is given as “+ (activity was measured to be greater than 5.0 μM)” and the Emax is less than 25%. Also, in test [4], the “M4 Activity” value was “+++ (activity was measured to be less than 2.0 μM)” and the Emax was in the range of 25 to 100%.
On to `COCCC(=O)N[C@@H]1CCC2(CCN(CCC(C)(C)C)CC2)c2cc(F)ccc21` [compound 212], for which, in test [1], the “M1 Activity” value is recorded as “+++ (activity was measured to be less than 2.0 μM)” and the Emax fell in the range of 25 to 100%. Also, in test [2], the “M2 Activity” value was “+ (activity was measured to be greater than 5.0 μM)” and the Emax was less than 25%. Moreover, in test [3], the “M3 Activity” value is recorded as “+ (activity was measured to be greater than 5.0 μM)” and the Emax was less than 25%. In test [4], the “M4 Activity” value is “+++ (activity was measured to be less than 2.0 μM)” and the Emax fell in the range of 25 to 100%.
